Test results published in publication PMC5840262, “Design, Synthesis and Evaluation of Branched RRWQWR-Based Peptides as Antibacterial Agents Against Clinically Relevant Gram-Positive and Gram-Negative Pathogens” (Frontiers in Microbiology, 2018).
Ends that are not written are not given here.

Key:
Format in all cases: cell-based
[1] = tested on: Enterococcus faecium clinical isolate 1,040; conditions: E. faecium isolate 1,040; for MIC50: broth microdilution, 24 h 37°C, OD620, 50% growth inhibition; for MBC: plated on agar 18 h 37°C, 99.9% reduction
Protocol: (§1) For the clinical isolates, we used 20 different isolates from the Public Health Reference Laboratory collection of the Secretaría de Salud del Distrito (SdSD; Bogotá, Colombia). The samples were collected from June to December 2016. For each isolate, the patient parameters (age, gender and location) and the culture site were recorded for epidemiologic monitoring (Table 1). All isolates had been previously tested for antibiotic sensitivity at the Public Health Microbiology Laboratory using either the Phoenix™ system (Gram-positive) or the VITEK 2 system (Gram-negative).
(§2) We screened all five peptides against the ATCC reference strains and the clinical isolates according to Method M7-A7 of the National Committee for Clinical Laboratory Standards (CLSI, [2007]). The MIC50 and MBC values were determined using a broth microdilution and growth inhibition method previously reported by Leon-Calvijo et al. ([2015]), with some modifications (Wiegand et al., [2008]). Briefly, the MIC50 experiments comprised a liquid-inhibition growth assay in a sterile, untreated, 96-well flat-bottom tissue culture plate. The bacteria were cultured overnight n Mueller Hinton agar; three colonies were transferred to 8 mL of Mueller Hilton broth and incubated at 37°C until the mid-exponential phase of growth. The turbidity of the cultures was measured and adjusted spectrophotometrically to a McFarland standard of 0.5, and then diluted to a final concentration of 5 × 10^7 colony forming units (CFU) per well. Stock solutions (2,000 μM) of each test peptide were serially diluted to final concentrations (per well) of 200, 100, 50, 25, 12.5, and 6.25 μM. Each concentration was evaluated in duplicate and each assay was performed in triplicate.
(§3) Wells containing Mueller Hilton broth with bacterial inoculum only served as bacterial-growth controls. Additional controls included Mueller Hilton broth alone (as blank) and Mueller Hilton broth with ciprofloxacin (2 μg/mL; as positive control). The microplate was incubated for 24 h at 37°C, and growth inhibition was measured by monitoring the optical density at 620 nm (OD620). The MIC50 was defined as the peptide concentration at which bacterial growth was inhibited by 50%.
(§4) To determine the MBC, an aliquot from each well of the MIC50 assay was spread onto Mueller Hilton agar. After 18 h at 37°C, the concentration that inhibited bacterial growth was determined. Each of these tests was performed four times. MBC was defined as the lowest concentration of peptide at which the number of bacteria was reduced by 99.9% in vitro (European Committee for Antimicrobial Susceptibility Testing, [2000]).

[2] = tested on: Enterococcus faecium clinical isolate 1,225; conditions: E. faecium isolate 1,225; for MIC50: broth microdilution, 24 h 37°C, OD620, 50% growth inhibition; for MBC: plated on agar 18 h 37°C, 99.9% reduction
Protocol: as §1, §2, §3, §4

[3] = tested on: Enterococcus faecium clinical isolate 1,461; conditions: E. faecium isolate 1,461; for MIC50: broth microdilution, 24 h 37°C, OD620, 50% growth inhibition; for MBC: plated on agar 18 h 37°C, 99.9% reduction
Protocol: as §1, §2, §3, §4

[4] = tested on: Enterococcus faecium clinical isolate 1,462; conditions: E. faecium isolate 1,462; for MIC50: broth microdilution, 24 h 37°C, OD620, 50% growth inhibition; for MBC: plated on agar 18 h 37°C, 99.9% reduction
Protocol: as §1, §2, §3, §4

[5] = tested on: Enterococcus faecium clinical isolate 550; conditions: E. faecium isolate 550; for MIC50: broth microdilution, 24 h 37°C, OD620, 50% growth inhibition; for MBC: plated on agar 18 h 37°C, 99.9% reduction
Protocol: as §1, §2, §3, §4

[6] = tested on: Klebsiella pneumoniae clinical isolate 50,181; conditions: K. pneumoniae isolate 50,181; for MIC50: broth microdilution, 24 h 37°C, OD620, 50% growth inhibition; for MBC: plated on agar 18 h 37°C, 99.9% reduction
Protocol: as §1, §2, §3, §4

[7] = tested on: Klebsiella pneumoniae clinical isolate 51,009; conditions: K. pneumoniae isolate 51,009; for MIC50: broth microdilution, 24 h 37°C, OD620, 50% growth inhibition; for MBC: plated on agar 18 h 37°C, 99.9% reduction
Protocol: as §1, §2, §3, §4

[8] = tested on: Klebsiella pneumoniae clinical isolate 51,048; conditions: K. pneumoniae isolate 51,048; for MIC50: broth microdilution, 24 h 37°C, OD620, 50% growth inhibition; for MBC: plated on agar 18 h 37°C, 99.9% reduction
Protocol: as §1, §2, §3, §4

[9] = tested on: Pseudomonas aeruginosa clinical isolate 48,220; conditions: P. aeruginosa isolate 48,220; for MIC50: broth microdilution, 24 h 37°C, OD620, 50% growth inhibition; for MBC: plated on agar 18 h 37°C, 99.9% reduction
Protocol: as §1, §2, §3, §4

[10] = tested on: Pseudomonas aeruginosa clinical isolate 48,221; conditions: P. aeruginosa isolate 48,221; for MIC50: broth microdilution, 24 h 37°C, OD620, 50% growth inhibition; for MBC: plated on agar 18 h 37°C, 99.9% reduction
Protocol: as §1, §2, §3, §4

[11] = tested on: Pseudomonas aeruginosa clinical isolate 48,458; conditions: P. aeruginosa isolate 48,458; for MIC50: broth microdilution, 24 h 37°C, OD620, 50% growth inhibition; for MBC: plated on agar 18 h 37°C, 99.9% reduction
Protocol: as §1, §2, §3, §4

[12] = tested on: Pseudomonas aeruginosa clinical isolate 48,526; conditions: P. aeruginosa isolate 48,526; for MIC50: broth microdilution, 24 h 37°C, OD620, 50% growth inhibition; for MBC: plated on agar 18 h 37°C, 99.9% reduction
Protocol: as §1, §2, §3, §4

[13] = tested on: Staphylococcus aureus clinical isolate 43,062; conditions: S. aureus isolate 43,062; for MIC50: broth microdilution, 24 h 37°C, OD620, 50% growth inhibition; for MBC: plated on agar 18 h 37°C, 99.9% reduction
Protocol: as §1, §2, §3, §4

[14] = tested on: Staphylococcus aureus clinical isolate 43,337; conditions: S. aureus isolate 43,337; for MIC50: broth microdilution, 24 h 37°C, OD620, 50% growth inhibition; for MBC: plated on agar 18 h 37°C, 99.9% reduction
Protocol: as §1, §2, §3, §4

[15] = tested on: Staphylococcus aureus clinical isolate 48,575; conditions: S. aureus isolate 48,575; for MIC50: broth microdilution, 24 h 37°C, OD620, 50% growth inhibition; for MBC: plated on agar 18 h 37°C, 99.9% reduction
Protocol: as §1, §2, §3, §4

[16] = tested on: Staphylococcus aureus clinical isolate 48,577; conditions: S. aureus isolate 48,577; for MIC50: broth microdilution, 24 h 37°C, OD620, 50% growth inhibition; for MBC: plated on agar 18 h 37°C, 99.9% reduction
Protocol: as §1, §2, §3, §4

[17] = tested on: Klebsiella pneumoniae clinical isolate 49,644; conditions: K. pneumoniae isolate 49,644
Protocol: as §1, §2, §3, §4

Substance | MIC50 [1] [µM] | MBC [1] [µM] | MIC50 [2] [µM] | MBC [2] [µM] | MIC50 [3] [µM] | MBC [3] [µM] | MIC50 [4] [µM] | MBC [4] [µM] | MIC50 [5] [µM] | MBC [5] [µM] | MIC50 [6] [µM] | MBC [6] [µM] | MIC50 [7] [µM] | MBC [7] [µM] | MIC50 [8] [µM] | MBC [8] [µM] | MIC50 [9] [µM] | MBC [9] [µM] | MIC50 [10] [µM] | MBC [10] [µM] | further results
(RRWQWR)4K2Ahx2C2 (disulfide) [LfcinB (20–25)4, branched tetrameric peptide (RRWQWR)4K2Ahx2C2, two dimers linked by a cysteine disulfide bridge] | >100 | >100 | >100 | 12.5 | >100 | 12.5 | >100 | 12.5 | >100 | 12.5 | 5.5 | 100.0 | 1.6 | 25.0 | 5.2 | 50.0 | 12.6 | 25.0 | 11.9 | 50.0 | MIC50 [11]: 72.8 µM; MBC [11]: >100 µM; MIC50 [12]: 24.9 µM; MBC [12]: >100 µM; MIC50 [13]: 6.7 µM; MBC [13]: 12.5 µM; MIC50 [14]: 6.3 µM; MBC [14]: 12.5 µM; MIC50 [15]: 9.2 µM; MBC [15]: 12.5 µM; MIC50 [16]: 6.3 µM; MBC [16]: 100.0 µM
RRWQWR-NH2 [LfcinB (20–25), reference compound] | >100 | >100 | >100 | >100 | >100 | >100 | >100 | >100 | >100 | >100 | >100 | >100 | >100 | >100 | >100 | >100 | >100 | >100 | >100 | >100 | MIC50 ([17]; broth microdilution, 24 h 37°C, OD620, 50% growth inhibition): >100 µM; MBC ([17]; plated on agar 18 h 37°C, 99.9% reduction): >100 µM; MIC50 [11]: >100 µM; MBC [11]: >100 µM; MIC50 [12]: >100 µM; MBC [12]: >100 µM; MIC50 [13]: 5.1 µM; MBC [13]: >100 µM; MIC50 [14]: 3.7 µM; MBC [14]: >100 µM; MIC50 [15]: 3.7 µM; MBC [15]: >100 µM; MIC50 [16]: 3.7 µM; MBC [16]: >100 µM
